PubChem BioAssay (NCI)
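Five concentrations, 48 hours, 96-well plates. Definition used: TGI = concentration required for complete inhibition of growth.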

Key:
Assay in all cases: NCI tumour cell line growth inhibition, 48 h
OVCAR-8 ovarian = system: OVCAR-8 ovarian
MOLT-4 leukemia = system: MOLT-4 leukemia
HL-60(TB) leukemia = system: HL-60(TB) leukemia
NCI/ADR-RES ovarian = system: NCI/ADR-RES ovarian
COLO 205 colon = system: COLO 205 colon
SK-OV-3 ovarian = system: SK-OV-3 ovarian
CCRF-CEM leukemia = system: CCRF-CEM leukemia
TK-10 renal = system: TK-10 renal
MCF7 breast = system: MCF7 breast
U251 CNS = system: U251 CNS

Row | Compound | TGI (OVCAR-8 ovarian) | TGI (MOLT-4 leukemia) | TGI (HL-60(TB) leukemia) | TGI (NCI/ADR-RES ovarian) | TGI (COLO 205 colon) | TGI (SK-OV-3 ovarian) | TGI (CCRF-CEM leukemia) | TGI (TK-10 renal) | TGI (MCF7 breast) | TGI (U251 CNS)
1 | Nc1ccccc1CC(O)C(=O)O (stereo not given) | > 100 µM | > 100 µM | > 100 µM | > 100 µM | > 100 µM | > 100 µM | > 100 µM | > 100 µM | > 100 µM | > 100 µM
2 | Cc1c2c(n(CCc3ccc(Cl)cc3)c1C)NC(c1ccccc1)C(C#N)S2(=O)=O (stereo not given) | > 100 µM | 11.6 µM | > 100 µM | > 100 µM | > 71.4 µM | > 100 µM | 5.07 µM | > 100 µM | > 60.1 µM | > 100 µM
3 | CC(=O)Nc1ccc(OC2=CCN(C)CC2)cc1 | > 100 µM | > 100 µM | > 100 µM | > 100 µM | > 100 µM | > 100 µM | > 100 µM | > 100 µM | > 100 µM | > 100 µM
4 | O=C(O)c1nc(-c2ccccc2)[nH]c1C(=O)O | 29.7 µM | 9.64 µM | 0.49 µM | > 82.8 µM | 31.7 µM | 32.4 µM | 3.04 µM | 28.8 µM | 15.7 µM | 8.33 µM
